Data reported in PubChem BioAssay (NCI).
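Values below derive from 48-hour exposures of cells grown in 96-well plates, with endpoints linearly interpolated between the two concentrations bracketing the appropriate inhibition level. TGI is the concentration that stops growth completely.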

How the values were obtained:
Experiment in all cases: NCI anticancer screen, dose series, 48 h
NCI-H23 lung = system: NCI-H23 lung
UACC-62 melanoma = system: UACC-62 melanoma
K-562 leukemia = system: K-562 leukemia
RXF 393 renal = system: RXF 393 renal
SNB-19 CNS = system: SNB-19 CNS
RXF-631 renal = system: RXF-631 renal
LXFL 529 NSCLC = system: LXFL 529 NSCLC
SNB-75 CNS = system: SNB-75 CNS
SK-MEL-28 melanoma = system: SK-MEL-28 melanoma
DMS 114 small cell lung = system: DMS 114 small cell lung
SF-295 CNS = system: SF-295 CNS
HOP-62 NSCLC = system: HOP-62 NSCLC
HCT-15 colon = system: HCT-15 colon
TK-10 renal = system: TK-10 renal
HOP-18 NSCLC = system: HOP-18 NSCLC
ACHN renal = system: ACHN renal
DLD-1 colon = system: DLD-1 colon
UACC-257 melanoma = system: UACC-257 melanoma
OVCAR-8 ovarian = system: OVCAR-8 ovarian
786-0 renal = system: 786-0 renal
CAKI-1 renal = system: CAKI-1 renal
A498 renal = system: A498 renal
OVCAR-3 ovarian = system: OVCAR-3 ovarian
M14 melanoma = system: M14 melanoma
RPMI-8226 leukemia = system: RPMI-8226 leukemia
HT29 colon = system: HT29 colon
EKVX NSCLC = system: EKVX NSCLC
HCT-116 colon = system: HCT-116 colon
MALME-3M melanoma = system: MALME-3M melanoma
SK-OV-3 ovarian = system: SK-OV-3 ovarian
SF-539 CNS = system: SF-539 CNS
LOX IMVI melanoma = system: LOX IMVI melanoma
NCI-H522 lung = system: NCI-H522 lung
COLO 205 colon = system: COLO 205 colon
OVCAR-4 ovarian = system: OVCAR-4 ovarian
HCC-2998 colon = system: HCC-2998 colon
OVCAR-5 ovarian = system: OVCAR-5 ovarian
DMS 273 small cell lung = system: DMS 273 small cell lung
SF-268 CNS = system: SF-268 CNS
NCI-H460 lung = system: NCI-H460 lung
UO-31 renal = system: UO-31 renal
A549 NSCLC = system: A549 NSCLC
SW-620 colon = system: SW-620 colon
SK-MEL-2 melanoma = system: SK-MEL-2 melanoma
HOP-92 NSCLC = system: HOP-92 NSCLC
CCRF-CEM leukemia = system: CCRF-CEM leukemia
SNB-78 CNS = system: SNB-78 CNS
KM20L2 colon = system: KM20L2 colon
U251 CNS = system: U251 CNS
MOLT-4 leukemia = system: MOLT-4 leukemia
SN12C renal = system: SN12C renal
XF 498 CNS = system: XF 498 CNS
M19-MEL melanoma = system: M19-MEL melanoma
SK-MEL-5 melanoma = system: SK-MEL-5 melanoma
IGROV1 ovarian = system: IGROV1 ovarian
KM12 colon = system: KM12 colon
NCI-H226 lung = system: NCI-H226 lung
SR leukemia = system: SR leukemia

In the case of `Cc1cc(NS(=O)(=O)c2ccc(Nc3c4ccccc4nc4c(C(=O)Nc5ccc(S(=O)(=O)N=C(N)N)cc5)cccc34)cc2)no1`, the TGI (NCI-H23 lung) is reported as greater than 100 µM, the TGI (UACC-62 melanoma) is reported as greater than 100 µM and the TGI (K-562 leukemia) is reported as greater than 100 µM. It also gave a TGI (RXF 393 renal) greater than 100 µM, a TGI (SNB-19 CNS) greater than 100 µM and a TGI (RXF-631 renal) greater than 100 µM. For the same compound, the TGI (LXFL 529 NSCLC) was greater than 100 µM, the TGI (SNB-75 CNS) was greater than 100 µM and the TGI (SK-MEL-28 melanoma) was greater than 100 µM. It also gave a TGI (DMS 114 small cell lung) greater than 100 µM, a TGI (SF-295 CNS) greater than 100 µM and a TGI (HOP-62 NSCLC) greater than 100 µM. It also gave a TGI (HCT-15 colon) greater than 100 µM, a TGI (TK-10 renal) greater than 100 µM and a TGI (HOP-18 NSCLC) greater than 100 µM. The TGI (ACHN renal) was greater than 100 µM, the TGI (DLD-1 colon) was greater than 100 µM and the TGI (UACC-257 melanoma) was greater than 100 µM. The TGI (OVCAR-8 ovarian) was greater than 100 µM, the TGI (786-0 renal) was greater than 100 µM and the TGI (CAKI-1 renal) was greater than 100 µM. For the same compound, the TGI (A498 renal) was greater than 100 µM, the TGI (OVCAR-3 ovarian) was greater than 100 µM and the TGI (M14 melanoma) was greater than 100 µM. It also gave a TGI (RPMI-8226 leukemia) greater than 100 µM, a TGI (HT29 colon) greater than 100 µM and a TGI (EKVX NSCLC) greater than 100 µM. For the same compound, the TGI (HCT-116 colon) was greater than 100 µM, the TGI (MALME-3M melanoma) was greater than 100 µM and the TGI (SK-OV-3 ovarian) was greater than 100 µM. For the same compound, the TGI (SF-539 CNS) was greater than 100 µM, the TGI (LOX IMVI melanoma) was greater than 100 µM and the TGI (NCI-H522 lung) was greater than 100 µM. It also gave a TGI (COLO 205 colon) greater than 100 µM, a TGI (OVCAR-4 ovarian) greater than 100 µM and a TGI (HCC-2998 colon) greater than 100 µM. It also gave a TGI (OVCAR-5 ovarian) greater than 100 µM, a TGI (DMS 273 small cell lung) greater than 100 µM and a TGI (SF-268 CNS) greater than 100 µM. For the same compound, the TGI (NCI-H460 lung) was greater than 100 µM, the TGI (UO-31 renal) was greater than 100 µM and the TGI (A549 NSCLC) was greater than 100 µM. The TGI (SW-620 colon) was greater than 100 µM, the TGI (SK-MEL-2 melanoma) was greater than 100 µM and the TGI (HOP-92 NSCLC) was greater than 100 µM. For the same compound, the TGI (CCRF-CEM leukemia) was greater than 100 µM, the TGI (SNB-78 CNS) was greater than 100 µM and the TGI (KM20L2 colon) was greater than 100 µM. It also gave a TGI (U251 CNS) greater than 100 µM, a TGI (MOLT-4 leukemia) greater than 100 µM and a TGI (SN12C renal) greater than 100 µM. It also gave a TGI (XF 498 CNS) greater than 100 µM, a TGI (M19-MEL melanoma) greater than 100 µM and a TGI (SK-MEL-5 melanoma) greater than 100 µM. It also gave a TGI (IGROV1 ovarian) greater than 100 µM and a TGI (KM12 colon) greater than 100 µM.
`Cn1cnc([N+](=O)[O-])c1Sc1ccccn1` showed a TGI (NCI-H23 lung) greater than 100 µM, a TGI (UACC-62 melanoma) greater than 100 µM and a TGI (K-562 leukemia) greater than 100 µM. The TGI (SNB-19 CNS) was greater than 100 µM, the TGI (RXF-631 renal) was greater than 100 µM and the TGI (LXFL 529 NSCLC) was greater than 100 µM. For the same compound, the TGI (SNB-75 CNS) was greater than 100 µM, the TGI (SK-MEL-28 melanoma) was greater than 100 µM and the TGI (DMS 114 small cell lung) was greater than 100 µM. For the same compound, the TGI (NCI-H226 lung) was greater than 100 µM, the TGI (SF-295 CNS) was greater than 100 µM and the TGI (HOP-62 NSCLC) was greater than 100 µM. It also gave a TGI (TK-10 renal) greater than 100 µM, a TGI (HOP-18 NSCLC) of 96.1 µM and a TGI (ACHN renal) greater than 100 µM. The TGI (DLD-1 colon) was greater than 100 µM, the TGI (UACC-257 melanoma) was greater than 100 µM and the TGI (OVCAR-8 ovarian) was greater than 100 µM. For the same compound, the TGI (786-0 renal) was greater than 100 µM, the TGI (CAKI-1 renal) was greater than 100 µM and the TGI (A498 renal) was greater than 100 µM. It also gave a TGI (OVCAR-3 ovarian) greater than 100 µM, a TGI (M14 melanoma) greater than 100 µM and a TGI (RPMI-8226 leukemia) greater than 100 µM. The TGI (HT29 colon) was greater than 100 µM, the TGI (EKVX NSCLC) was greater than 100 µM and the TGI (HCT-116 colon) was greater than 100 µM. It also gave a TGI (MALME-3M melanoma) greater than 100 µM, a TGI (SK-OV-3 ovarian) greater than 100 µM and a TGI (SF-539 CNS) greater than 100 µM. It also gave a TGI (LOX IMVI melanoma) greater than 100 µM, a TGI (NCI-H522 lung) greater than 100 µM and a TGI (COLO 205 colon) greater than 100 µM. For the same compound, the TGI (OVCAR-4 ovarian) was greater than 100 µM, the TGI (HCC-2998 colon) was greater than 100 µM and the TGI (OVCAR-5 ovarian) was greater than 100 µM. For the same compound, the TGI (DMS 273 small cell lung) was greater than 100 µM, the TGI (SF-268 CNS) was greater than 100 µM and the TGI (SR leukemia) was greater than 100 µM. The TGI (NCI-H460 lung) was greater than 100 µM, the TGI (UO-31 renal) was greater than 100 µM and the TGI (A549 NSCLC) was greater than 100 µM. For the same compound, the TGI (SW-620 colon) was greater than 100 µM, the TGI (SK-MEL-2 melanoma) was greater than 100 µM and the TGI (HOP-92 NSCLC) was greater than 100 µM. It also gave a TGI (CCRF-CEM leukemia) greater than 100 µM, a TGI (SNB-78 CNS) greater than 100 µM and a TGI (U251 CNS) greater than 100 µM. For the same compound, the TGI (MOLT-4 leukemia) was greater than 100 µM, the TGI (SN12C renal) was greater than 100 µM and the TGI (XF 498 CNS) was greater than 100 µM. It also gave a TGI (M19-MEL melanoma) greater than 100 µM, a TGI (SK-MEL-5 melanoma) greater than 100 µM and a TGI (IGROV1 ovarian) greater than 100 µM. It also gave a TGI (KM12 colon) greater than 100 µM.
